Test results reported in patent US20240216549A1, “ENHANCEMENT OF TREATMENT WITH IMMUNOTHERAPEUTIC AGENTS” (ACT THERAPEUTICS LTD, priority 2021, published 2024).

Test system: subcutaneous prostate cancer model (PC3)
Test: Tumour specific uptake of Evans Blue vs. Enhancement MI
Type: in vivo, mice
Conditions: ACT, Enhancement 0.5 MHz MI 0.2, compared to MI=0 (no ultrasound); 30 min after treatment
Description: To investigate the effect of MI variance of the US Enhancement field, tumour specific uptake of Evans Blue (EB, fluorescent dye) has been investigated in a subcutaneous prostate cancer model (PC3) in mice. Five groups with Enhancement insonation MIs of 0, 0.1, 0.2, 0.3 and 0.4 were investigated (N=3 animals per group). […] 30 min after treatment, the tumours were excised and the amount of EB was measured by spectrophotometry at 620 nm.

Cc1cc(-c2ccc(/N=N/c3ccc4c(S(=O)(=O)O)cc(S(=O)(=O)O)c(N)c4c3O)c(C)c2)ccc1/N=N/c1ccc2c(S(=O)(=O)O)cc(S(=O)(=O)O)c(N)c2c1O [Evans Blue]
increase in tumour specific uptake: ~60%
